The source of these data is US6069143A, “Fibrinogen receptor antagonists” (SmithKline Beecham Corporation, priority 1996, dated 2000).

The test concerns the target T1, fibrinogen receptor (GPIIb-IIIa) (Homo sapiens, UniProt P05106+P08514).
T1 construct: Ten units of outdated, washed human platelets (obtained from Red Cross) were lyzed; from tissue; host or cells: outdated human platelets (Red Cross); GPIIb-IIIa purified on lentil lectin sepharose and incorporated in liposomes
As to the kind of experiment: Competitive binding to GPIIb-IIIa ([3H]-SK&F-107260 displacement, GPIIb-IIIa liposomes). The note with it: purified human platelet GPIIb-IIIa in liposomes; 4.5 nM [3H]-SK&F-107260; Ki from IC50 by Cheng and Prusoff equation; read-out: Ki, inhibition of [3H]-SK&F 107260 binding. On the procedure:
Ten units of outdated, washed human platelets (obtained from Red Cross) were lyzed by gentle stirring in 3% octylglucoside, 20 mM Tris-HCl, pH 7.4, 140 mM NaCl, 2 mM CaCl2 at 4° C. for 2 h. The lysate was centrifuged at 100,000 g for 1 h. The supernatant obtained was applied to a 5 mL lentil lectin sepharose 4B column (E.Y. Labs) preequilibrated with 20 mM Tris-HCl, pH 7.4, 100 mM NaCl, 2 mM CaCl2, 1% octylglucoside (buffer A). After 2 h incubation, the column was washed with 50 mL cold buffer A. The lectin-retained GPIIb-IIIa was eluted with buffer A containing 10% dextrose. All procedures were performed at 4° C. The GPIIb-IIIa obtained was >95% pure as shown by SDS polyacrylamide gel electrophoresis. […]
The binding to the fibrinogen receptor (GPIIb-IIIa) was assayed by an indirect competitive binding method using [^3 H]-SK&F-107260 as an RGD-type ligand. […] Bound radioactivity remaining on the filters was counted in 1.5 mL Ready Solve (Beckman Instruments, Fullerton, Calif.) in a Beckman Liquid Scintillation Counter (Model LS6800), with 40% efficiency. Nonspecific binding was determined in the presence of 2 μg unlabeled SK&F-107260 and was consistently less than 0.14% of the total radioactivity added to the samples. […]
Competition binding data were analyzed by a nonlinear least-squares curve fitting procedure. […]

T1 sequence (P08514 32-887 limits assumed): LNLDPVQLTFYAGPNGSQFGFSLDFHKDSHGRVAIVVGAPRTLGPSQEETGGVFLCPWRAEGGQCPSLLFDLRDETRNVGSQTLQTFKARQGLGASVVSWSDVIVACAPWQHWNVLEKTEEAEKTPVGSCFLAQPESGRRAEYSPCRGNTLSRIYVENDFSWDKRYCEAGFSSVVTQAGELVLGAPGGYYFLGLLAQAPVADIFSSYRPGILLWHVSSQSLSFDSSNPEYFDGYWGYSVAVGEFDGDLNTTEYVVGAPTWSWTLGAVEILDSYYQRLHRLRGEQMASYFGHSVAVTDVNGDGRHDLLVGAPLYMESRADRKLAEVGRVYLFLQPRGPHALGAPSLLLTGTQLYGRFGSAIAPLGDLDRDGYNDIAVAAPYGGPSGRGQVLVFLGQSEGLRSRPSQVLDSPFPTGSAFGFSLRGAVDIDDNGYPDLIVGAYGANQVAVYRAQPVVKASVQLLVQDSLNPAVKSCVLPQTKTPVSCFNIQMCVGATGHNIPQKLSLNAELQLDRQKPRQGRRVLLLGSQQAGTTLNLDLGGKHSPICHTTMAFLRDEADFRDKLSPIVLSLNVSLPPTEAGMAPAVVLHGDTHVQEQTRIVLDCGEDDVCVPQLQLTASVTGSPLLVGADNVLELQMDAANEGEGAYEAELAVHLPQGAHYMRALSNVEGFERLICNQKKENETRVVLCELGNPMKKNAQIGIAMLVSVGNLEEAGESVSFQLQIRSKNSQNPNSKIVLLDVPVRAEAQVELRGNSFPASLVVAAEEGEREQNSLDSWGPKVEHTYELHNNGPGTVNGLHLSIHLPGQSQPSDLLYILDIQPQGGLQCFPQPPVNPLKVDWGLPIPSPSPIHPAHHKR
T1 sequence (P08514 891-1039 limits assumed): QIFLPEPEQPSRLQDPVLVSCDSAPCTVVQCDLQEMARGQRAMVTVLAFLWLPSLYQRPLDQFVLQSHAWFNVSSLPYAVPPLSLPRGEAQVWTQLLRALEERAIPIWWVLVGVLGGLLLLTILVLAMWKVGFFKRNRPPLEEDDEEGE
T1 sequence (P05106 27-788): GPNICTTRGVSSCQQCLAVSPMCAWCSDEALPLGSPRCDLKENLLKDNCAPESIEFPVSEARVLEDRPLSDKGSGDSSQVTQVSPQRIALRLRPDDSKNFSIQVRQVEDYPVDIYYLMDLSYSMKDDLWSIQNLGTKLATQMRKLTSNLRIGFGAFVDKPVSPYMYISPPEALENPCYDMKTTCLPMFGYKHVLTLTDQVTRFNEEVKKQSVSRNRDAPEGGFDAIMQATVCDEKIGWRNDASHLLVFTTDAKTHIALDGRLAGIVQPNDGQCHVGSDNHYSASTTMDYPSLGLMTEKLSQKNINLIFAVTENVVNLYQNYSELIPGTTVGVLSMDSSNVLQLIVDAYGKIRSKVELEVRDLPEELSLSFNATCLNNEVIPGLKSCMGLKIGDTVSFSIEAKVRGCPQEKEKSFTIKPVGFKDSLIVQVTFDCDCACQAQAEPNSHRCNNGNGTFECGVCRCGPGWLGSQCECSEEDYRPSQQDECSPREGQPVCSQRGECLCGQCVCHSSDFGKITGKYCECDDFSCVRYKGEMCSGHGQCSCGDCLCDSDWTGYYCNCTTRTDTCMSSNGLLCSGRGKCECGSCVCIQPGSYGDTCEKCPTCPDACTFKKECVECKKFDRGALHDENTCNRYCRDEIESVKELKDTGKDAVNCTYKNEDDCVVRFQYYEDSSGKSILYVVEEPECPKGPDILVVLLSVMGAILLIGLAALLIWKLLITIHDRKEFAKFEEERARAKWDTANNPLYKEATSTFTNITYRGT

Turning to `O=C(O)CN1CCC(C(=O)Nc2ccc(N3CCNCC3)cc2)CC1` [Example 1, 4-[[[4-(1-piperazinyl)phenyl]amino]carbonyl]-1-piperidineacetic acid], the Ki is approximately 5 nM.

Broadly, the Ki is the equilibrium dissociation constant of an inhibitor or competing ligand from its target.
